Data: patent publication US20030013905A1, “Salts of cis-4-cyano-4[3(cyclopentyloxy)-4-methoxyphenyl]cyclohexane-1-carboxylic acid” (priority 2002, published 2003)
Structures can show the parent of a compound that is named as a salt.

Experiment: Water uptake on exposure to air (Karl Fisher water content)
Type: physicochemical
Conditions: recrystallized sodium salt 1(b), exposed to air at room temperature for 1 week; 2.9% before exposure; said to indicate fairly high hydroscopic nature

COc1ccc(C2(C#N)CCC(C(=O)O)CC2)cc1OC1CCCC1 (stereo not drawn) [Example 1, cis-4-cyano-4-[3-(cyclopentyloxy)-4-methoxyphenyl]cyclohexane-1-carboxylic acid sodium salt]
water content on Karl Fisher after exposure to air: 22.9%
